Measurements from ChEMBL document CHEMBL4002573, “New insights into the SAR and drug combination synergy of 2-(quinolin-4-yloxy)acetamides against Mycobacterium tuberculosis” (Eur J Med Chem, 2017).
Values after ≈ are worked out from the molar mass of the structure shown.

Columns and labels:
[1] = system: Mycobacterium tuberculosis; experiment: Potency index, ratio of isoniazid MIC to test compound MIC for Mycobacterium tuberculosis H37Rv; type: functional
[2] = system: Mycobacterium tuberculosis; experiment: Potency index, ratio of moxifloxacin MIC to test compound MIC for Mycobacterium tuberculosis PE-003 clinical isolate; type: functional
[3] = Cytotoxicity against human HepG2 cells assessed as viability at 10 uM after 72 hrs by MTT assay relative to control; type: cell-based; details: read-out: Activity
[4] = Cytotoxicity against African green monkey Vero cells assessed as viability at 10 uM after 72 hrs by MTT assay relative to control; type: cell-based; details: chlorocebus sabaeus, read-out: Activity
[5] = Cytotoxicity against mouse RAW264.7 cells assessed as viability at 10 uM after 72 hrs by MTT assay relative to control; type: cell-based; details: read-out: Activity
[6] = Cytotoxicity against human HaCaT cells assessed as viability at 10 uM after 72 hrs by MTT assay relative to control; type: cell-based; details: read-out: Activity
[7] = Cytotoxicity against mouse N9 cells assessed as viability at 10 uM after 72 hrs by MTT assay relative to control; type: cell-based; details: read-out: Activity
[8] = system: Mycobacterium tuberculosis; experiment: Bactericidal activity against Mycobacterium tuberculosis H37Rv infected in mouse RAW264.7 cells assessed as bacterial colony formation at 5 uM after 5 days (reference value: 4.1 to 4.73 log10CU); type: functional
[9] = system: Mycobacterium tuberculosis; type: functional; details: H37Rv, 168 h
[10] = system: Mycobacterium tuberculosis; type: functional; details: H37Rv, 168 h; remark: listed apart in the source
[11] = system: Mycobacterium tuberculosis; type: functional; details: H37Rv, 168 h; remark: listed apart in the source
[12] = system: Mycobacterium tuberculosis; type: functional; details: H37Rv, 168 h; remark: listed apart in the source
[13] = system: Mycobacterium tuberculosis; type: functional; details: H37Rv, 168 h; remark: listed apart in the source
[14] = system: Mycobacterium tuberculosis; type: functional; details: H37Rv, 168 h; remark: listed apart in the source
[15] = system: Mycobacterium tuberculosis; type: functional, H37Rv
[16] = Kinetic solubility in water at pH 5.8; type: physicochemical; details: read-out: Kinetic_solubility
[17] = Kinetic solubility in PBS at pH 7.4; type: physicochemical; details: read-out: Kinetic_solubility
[18] = Permeability of the compound at 1 uM […] by PAMPA; type: physicochemical; details: read-out: permeability
[19] = Intrinsic clearance in human liver S9 fraction at 2 uM by HPLC-MS/MS analysis; type: ADME, tissue-based
[20] = Half life in human liver S9 fraction at 2 uM by HPLC-MS/MS analysis; type: ADME, tissue-based
[21] = Thermodynamic solubility of the compound in 0.1N HCl at pH 1.5 after 24 hrs by HPLC method; type: physicochemical; details: read-out: Therm_solubility
[22] = Thermodynamic solubility of the compound in acetate buffer at pH 4 after 24 hrs by HPLC method; type: physicochemical; details: read-out: Therm_solubility
Cytochrome P450 3A4 = Cytochrome P450 3A4 (Homo sapiens, UniProt P08684); experiment: Inhibition of CYP3A4 in human liver microsomes using testosterone as substrate by HPLC-MS/MS method; type: ADME
Cytochrome P450 1A2 = target: T1, Cytochrome P450 1A2 (Homo sapiens, UniProt P05177); experiment: Inhibition of CYP1A2 in human liver microsomes using phenacetin as substrate by HPLC-MS/MS method; type: ADME
T1 sequence (P05177 whole entry): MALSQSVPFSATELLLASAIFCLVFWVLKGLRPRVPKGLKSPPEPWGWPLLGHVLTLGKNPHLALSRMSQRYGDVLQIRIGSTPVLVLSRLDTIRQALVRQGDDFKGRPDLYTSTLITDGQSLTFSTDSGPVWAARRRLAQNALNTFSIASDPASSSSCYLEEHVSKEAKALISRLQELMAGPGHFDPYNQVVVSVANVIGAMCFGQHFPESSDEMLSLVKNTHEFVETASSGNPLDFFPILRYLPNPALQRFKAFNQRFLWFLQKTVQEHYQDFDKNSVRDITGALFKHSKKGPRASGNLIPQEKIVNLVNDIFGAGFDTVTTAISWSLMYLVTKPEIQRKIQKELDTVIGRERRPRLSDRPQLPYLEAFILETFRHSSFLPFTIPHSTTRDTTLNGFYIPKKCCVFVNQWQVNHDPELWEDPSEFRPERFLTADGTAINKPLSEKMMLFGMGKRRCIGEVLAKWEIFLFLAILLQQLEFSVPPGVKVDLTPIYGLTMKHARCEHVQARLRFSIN

Cytochrome P450 2C9 = Cytochrome P450 2C9 (Homo sapiens, UniProt P11712); experiment: Inhibition of CYP2C9 in human liver microsomes using tolbutamide as substrate by HPLC-MS/MS method; type: ADME
Cytochrome P450 2C19 = Cytochrome P450 2C19 (Homo sapiens, UniProt P33261); experiment: Inhibition of CYP2C19 in human liver microsomes using S-(+)-mephenytoin as substrate by HPLC-MS/MS method; type: ADME
Cytochrome P450 2D6 = Cytochrome P450 2D6 (Homo sapiens, UniProt P10635); experiment: Inhibition of CYP2D6 in human liver microsomes using dextromethorphan as substrate by HPLC-MS/MS method; type: ADME
Cytochrome P450 2E1 = Cytochrome P450 2E1 (Homo sapiens, UniProt P05181); experiment: Inhibition of CYP2E1 in human liver microsomes using chlorzoxazone as substrate by HPLC-MS/MS method; type: ADME
[23] = system: Mycobacterium tuberculosis; experiment: microbe, parasite or virus in culture; details: H37Rv, 168 h
Description: Antimycobacterial activity against Mycobacterium tuberculosis H37Rv after 7 days by resazurin reduction microplate assay

[24] = system: Mycobacterium tuberculosis; experiment: microbe, parasite or virus in culture; details: PE-003, 168 h
Description: Antimycobacterial activity against Mycobacterium tuberculosis PE-003 clinical isolate after 7 days by resazurin reduction microplate assay

[25] = system: Mycobacterium tuberculosis; experiment: microbe, parasite or virus in culture; details: CDCT-4 (1105/09), 168 h
Description: Antimycobacterial activity against Mycobacterium tuberculosis CDCT-4 (1105/09) clinical isolate after 7 days by resazurin reduction microplate assay

Chain of Cytochrome P450 2E1 (P05181 whole entry): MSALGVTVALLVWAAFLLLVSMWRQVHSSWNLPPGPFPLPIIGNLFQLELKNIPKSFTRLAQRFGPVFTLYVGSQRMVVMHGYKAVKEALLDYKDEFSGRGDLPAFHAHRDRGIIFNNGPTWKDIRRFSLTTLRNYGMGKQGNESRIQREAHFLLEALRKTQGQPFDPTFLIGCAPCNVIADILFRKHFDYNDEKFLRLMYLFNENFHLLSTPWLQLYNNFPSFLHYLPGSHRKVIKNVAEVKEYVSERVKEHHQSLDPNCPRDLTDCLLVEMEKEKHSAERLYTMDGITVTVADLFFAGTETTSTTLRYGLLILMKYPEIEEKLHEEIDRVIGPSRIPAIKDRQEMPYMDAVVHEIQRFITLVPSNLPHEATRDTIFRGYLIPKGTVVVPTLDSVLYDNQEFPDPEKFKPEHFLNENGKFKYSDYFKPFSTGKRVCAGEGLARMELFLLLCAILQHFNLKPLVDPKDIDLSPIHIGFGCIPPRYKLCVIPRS
Chain of Cytochrome P450 2C19 (P33261 whole entry): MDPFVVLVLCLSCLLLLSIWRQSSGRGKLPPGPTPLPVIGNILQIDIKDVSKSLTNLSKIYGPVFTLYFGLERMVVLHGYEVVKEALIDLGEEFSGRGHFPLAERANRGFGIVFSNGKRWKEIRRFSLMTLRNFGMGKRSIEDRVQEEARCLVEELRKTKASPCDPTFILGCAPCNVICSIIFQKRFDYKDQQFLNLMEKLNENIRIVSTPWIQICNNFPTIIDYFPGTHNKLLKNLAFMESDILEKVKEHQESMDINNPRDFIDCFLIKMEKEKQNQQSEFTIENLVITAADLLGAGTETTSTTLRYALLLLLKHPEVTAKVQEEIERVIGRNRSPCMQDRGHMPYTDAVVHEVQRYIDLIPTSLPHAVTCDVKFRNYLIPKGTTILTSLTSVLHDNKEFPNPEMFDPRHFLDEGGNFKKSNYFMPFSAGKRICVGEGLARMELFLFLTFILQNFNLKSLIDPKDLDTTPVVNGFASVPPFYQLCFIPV
Chain of Cytochrome P450 2C9 (P11712 whole entry): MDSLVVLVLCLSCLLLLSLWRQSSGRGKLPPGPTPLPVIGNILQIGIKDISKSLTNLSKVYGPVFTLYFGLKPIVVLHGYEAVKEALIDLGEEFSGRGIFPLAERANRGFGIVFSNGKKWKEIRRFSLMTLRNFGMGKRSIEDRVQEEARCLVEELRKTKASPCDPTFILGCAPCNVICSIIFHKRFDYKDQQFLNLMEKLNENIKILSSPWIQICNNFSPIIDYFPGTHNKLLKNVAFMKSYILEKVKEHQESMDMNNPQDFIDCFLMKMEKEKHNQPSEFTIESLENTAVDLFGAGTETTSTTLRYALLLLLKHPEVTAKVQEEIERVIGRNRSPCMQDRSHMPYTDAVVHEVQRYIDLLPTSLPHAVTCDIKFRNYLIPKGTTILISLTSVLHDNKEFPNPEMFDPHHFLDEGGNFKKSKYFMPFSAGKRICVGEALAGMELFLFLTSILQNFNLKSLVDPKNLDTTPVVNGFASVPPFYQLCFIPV
Chain of Cytochrome P450 3A4 (P08684 whole entry): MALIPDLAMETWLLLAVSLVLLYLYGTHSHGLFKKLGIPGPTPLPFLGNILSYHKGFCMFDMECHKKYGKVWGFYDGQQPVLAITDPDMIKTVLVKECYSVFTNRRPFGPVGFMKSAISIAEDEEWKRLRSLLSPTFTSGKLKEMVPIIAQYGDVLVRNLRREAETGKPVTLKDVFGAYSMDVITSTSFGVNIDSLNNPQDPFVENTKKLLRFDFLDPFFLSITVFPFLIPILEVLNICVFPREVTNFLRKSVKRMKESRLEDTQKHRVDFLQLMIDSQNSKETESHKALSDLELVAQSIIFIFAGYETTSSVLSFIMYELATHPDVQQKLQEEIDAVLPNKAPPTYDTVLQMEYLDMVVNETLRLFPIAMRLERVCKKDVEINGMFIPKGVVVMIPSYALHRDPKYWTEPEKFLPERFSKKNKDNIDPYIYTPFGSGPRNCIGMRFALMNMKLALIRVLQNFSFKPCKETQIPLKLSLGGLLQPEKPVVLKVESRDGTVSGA
Chain of Cytochrome P450 2D6 (P10635 whole entry): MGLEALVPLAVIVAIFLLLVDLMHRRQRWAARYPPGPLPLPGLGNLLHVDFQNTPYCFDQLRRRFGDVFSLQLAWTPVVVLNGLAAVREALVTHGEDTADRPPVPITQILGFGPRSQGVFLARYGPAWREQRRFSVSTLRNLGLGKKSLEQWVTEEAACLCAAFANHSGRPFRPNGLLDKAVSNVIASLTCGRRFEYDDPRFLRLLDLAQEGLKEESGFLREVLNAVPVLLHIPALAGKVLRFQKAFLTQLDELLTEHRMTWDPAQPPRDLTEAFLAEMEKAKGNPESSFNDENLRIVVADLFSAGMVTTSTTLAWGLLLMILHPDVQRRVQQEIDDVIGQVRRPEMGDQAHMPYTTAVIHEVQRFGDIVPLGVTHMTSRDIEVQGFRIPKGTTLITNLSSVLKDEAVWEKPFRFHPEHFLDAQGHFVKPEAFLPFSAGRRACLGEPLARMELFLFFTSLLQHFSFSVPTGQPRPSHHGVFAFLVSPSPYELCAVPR

Question: Which Ratio [1] does the source give for `CCCCCc1ccc(NC(=O)COc2cc(C)nc3ccc(OC)cc23)cc1` here?
Answer: The Ratio was 292.

Question: And the Ratio [2]?
Answer: The Ratio was 100.

Question: What about the viability at 72 h, 10 µM [3] of the same molecule?
Answer: The viability at 72 h, 10 µM was 83%.

Question: What about the viability at 72 h, 10 µM [4] of the same molecule?
Answer: The viability at 72 h, 10 µM was 97%.

Question: What about the viability at 72 h, 10 µM [5] of the same molecule?
Answer: Its viability at 72 h, 10 µM is 86%.

Question: And the viability at 72 h, 10 µM [6]?
Answer: Its viability at 72 h, 10 µM is 105%.

Question: And the viability at 72 h, 10 µM [7]?
Answer: The viability at 72 h, 10 µM was 110%.

Question: What about the Activity [8] of the same molecule?
Answer: Its Activity is 3.23 log10CFU.

Question: And the MIC [9]?
Answer: The MIC was 10 ng/mL (≈ 0.0255 µM).

Question: And the MIC [10]?
Answer: Its MIC is 1 ng/mL (≈ 0.00255 µM).

Question: What about the MIC [11] of the same molecule?
Answer: Its MIC is 20 ng/mL (≈ 0.051 µM).

Question: What about the MIC [12] of the same molecule?
Answer: Its MIC is 2.5 ng/mL (≈ 0.00637 µM).

Question: And the MIC [13]?
Answer: The MIC was 10 ng/mL (≈ 0.0255 µM).

Question: And the MIC [14]?
Answer: The MIC was 5 ng/mL (≈ 0.0127 µM).

Question: What about the Ratio [15] of the same molecule?
Answer: Its Ratio is 2.

Question: What about the solubility kinetic [16] of the same molecule?
Answer: Its solubility kinetic is 2.6 µM (≈ 1.02 µg/mL).

Question: And the solubility kinetic [17]?
Answer: The solubility kinetic was 4.7 µM (≈ 1.84 µg/mL).

Question: And the Papp at 1 µM [18]?
Answer: Its Papp at 1 µM is 1.7 ×10⁻⁶ cm/s.

Question: What about the CLhep predicted at 2 µM [19] of the same molecule?
Answer: The CLhep predicted at 2 µM was 14.8 mL/min/kg.

Question: And the half-life at 2 µM [20]?
Answer: Its half-life at 2 µM is 19.4 min.

Question: And the solubility thermodynamic at 24 h [21]?
Answer: Its solubility thermodynamic at 24 h is 30 µM (≈ 11.8 µg/mL).

Question: What about the solubility thermodynamic at 24 h [22] of the same molecule?
Answer: The solubility thermodynamic at 24 h was 20 µM (≈ 7.85 µg/mL).

Question: What about the IC50 (Cytochrome P450 3A4) of the same molecule?
Answer: Its IC50 is over 30 µM.

Question: What about the IC50 (Cytochrome P450 1A2) of the same molecule?
Answer: Its IC50 is over 30 µM.

Question: And the IC50 (Cytochrome P450 2C9)?
Answer: Its IC50 is over 30 µM.

Question: And the IC50 (Cytochrome P450 2C19)?
Answer: The IC50 was over 30 µM.

Question: And the IC50 (Cytochrome P450 2D6)?
Answer: The IC50 was over 30 µM.

Question: What about the IC50 (Cytochrome P450 2E1) of the same molecule?
Answer: Its IC50 is over 30 µM.

Question: What about the MIC [23] of the same molecule?
Answer: The MIC was 0.005 to 0.01 µM (≈ 0.00196 to 0.00392 µg/mL).

Question: What about the MIC [24] of the same molecule?
Answer: The MIC was 0.001 µM (≈ 0.000392 µg/mL).

Question: And the MIC [25]?
Answer: The MIC was under 0.05 µM.
